Measured values as given in ChEMBL document CHEMBL1129297 (J Med Chem, 1996).

Tests used:
[1] = target: T1, 5-hydroxytryptamine receptor 1D (Homo sapiens, UniProt P28221)
[2] = target: T2, 5-hydroxytryptamine receptor 1A (Homo sapiens, UniProt P08908)
T2 sequence (P08908 whole entry): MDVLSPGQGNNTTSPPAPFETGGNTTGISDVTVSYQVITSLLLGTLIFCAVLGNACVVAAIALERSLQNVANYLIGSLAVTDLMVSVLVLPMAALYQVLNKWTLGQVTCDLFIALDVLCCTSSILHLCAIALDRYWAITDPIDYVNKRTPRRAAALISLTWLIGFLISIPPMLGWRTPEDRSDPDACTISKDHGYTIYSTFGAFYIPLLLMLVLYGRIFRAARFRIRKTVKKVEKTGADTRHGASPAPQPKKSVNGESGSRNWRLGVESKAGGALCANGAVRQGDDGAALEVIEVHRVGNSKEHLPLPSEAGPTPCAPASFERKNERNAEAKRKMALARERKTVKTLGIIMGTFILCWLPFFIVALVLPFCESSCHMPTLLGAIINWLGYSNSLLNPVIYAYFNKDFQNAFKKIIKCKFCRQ

[3] = target: T3, 5-hydroxytryptamine receptor 1B (Homo sapiens, UniProt P28222)
T3 sequence (P28222 whole entry): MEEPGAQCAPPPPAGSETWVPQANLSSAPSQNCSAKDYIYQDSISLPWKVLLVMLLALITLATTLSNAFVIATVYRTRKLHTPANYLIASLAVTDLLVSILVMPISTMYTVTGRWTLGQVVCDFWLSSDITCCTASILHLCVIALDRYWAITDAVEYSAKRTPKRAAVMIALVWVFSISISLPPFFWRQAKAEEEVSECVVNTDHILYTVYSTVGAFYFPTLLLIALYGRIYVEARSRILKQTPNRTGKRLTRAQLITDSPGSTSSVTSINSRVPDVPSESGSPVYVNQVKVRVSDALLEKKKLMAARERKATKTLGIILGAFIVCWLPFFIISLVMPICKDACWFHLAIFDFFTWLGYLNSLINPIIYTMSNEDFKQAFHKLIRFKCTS

[4] = target: T3, 5-hydroxytryptamine receptor 1B; test: Binding affinity towards cloned human 5-hydroxytryptamine 1D receptor was determined using […] as radioligand
[5] = target: T1, 5-hydroxytryptamine receptor 1D; test: Binding affinity of compound against 5-HT1Dalpha Binding affinity of compound against 5-HT1D alpha receptors in human
[6] = target: T3, 5-hydroxytryptamine receptor 1B; test: Displacement of [3H]-5-HT from human 5-hydroxytryptamine 1D receptor beta
[7] = organism: Cavia porcellus; test: Dissociation constant using guinea pig caudate membrane homogenate.; type: ADME

T1 sequence (P28221 whole entry): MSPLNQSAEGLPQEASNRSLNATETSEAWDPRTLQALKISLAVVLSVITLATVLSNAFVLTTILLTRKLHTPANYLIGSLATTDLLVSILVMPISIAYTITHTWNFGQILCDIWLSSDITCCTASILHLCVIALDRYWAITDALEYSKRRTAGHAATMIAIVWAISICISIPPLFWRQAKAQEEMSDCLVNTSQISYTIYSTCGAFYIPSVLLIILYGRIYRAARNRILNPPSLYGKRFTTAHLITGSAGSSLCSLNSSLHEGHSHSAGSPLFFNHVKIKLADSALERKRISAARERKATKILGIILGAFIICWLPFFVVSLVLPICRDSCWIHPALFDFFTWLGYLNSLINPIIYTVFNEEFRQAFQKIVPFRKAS

| SMILES | Ki [1] [nM] | Ki [2] [nM] | also measured |
| --- | --- | --- | --- |
| CC(C)(C)CCCCCCOc1ccc2[nH]cc(CCN)c2c1 | 16 | 920 |  |
| CC(C)CCCCCCOc1ccc2[nH]cc(CCN)c2c1 | 42 |  |  |
| CCCCCOc1ccc2[nH]cc(CCN)c2c1 | 1.5 | 42 |  |
| CCCCCCOc1ccc2[nH]c3c(c2c1)CC(N)CC3 (configuration not stated) | 1100 |  | Ki [3]: 188 nM |
| CC(=O)c1ccc2[nH]cc(CCN)c2c1 [ACETRYPTINE] |  | 1.3 |  |
| NCCc1c[nH]c2ccc(OCCCCC3CCCCC3)cc12 | 55 | 800 |  |
| CCc1ccc2[nH]cc(CCN)c2c1 |  | 20 |  |
| CCCCCCCCCOc1ccc2[nH]c3c(c2c1)CCN(C)C3 |  |  | Ki [4]: > 1000 nM |
| CCCCCCCCCCc1ccc2[nH]cc(CCN)c2c1 | 210 |  |  |
| CCCCCCCCCCCOc1ccc2[nH]cc(CCN)c2c1 | 69 | 885 |  |
| COc1ccc2[nH]c3c(c2c1)CC(N(C)C)CC3 (configuration not stated) |  |  | Ki [3]: > 1000 nM |
| CCCOc1ccc2[nH]cc(CCN)c2c1 |  | 88 |  |
| CCCCCCCCCCc1ccc2[nH]c3c(c2c1)CC(N)CC3 (configuration not stated) |  |  | Ki [4]: > 1000 nM |
| CCCCCCCCCOc1ccc2[nH]c3c(c2c1)CC(N)CC3 (configuration not stated) |  |  | Ki [5]: 2350 nM; Ki [3]: 172 nM |
| CC(C)(C)CCCCCCCOc1ccc2[nH]cc(CCN)c2c1 |  | 63 |  |
| CCCCCCCCCCOc1ccc2[nH]cc(CCN)c2c1 | 42 | 575 |  |
| CCCCCCCCCOc1ccc2[nH]cc(CCNCCCC)c2c1 | 223 | 1550 |  |
| CCCCCCCCOc1ccc2[nH]cc(CCN)c2c1 | 1.6 |  |  |
| CCCCCCCOc1ccc2[nH]cc(CCN)c2c1 | 4.9 | 38 |  |
| COc1ccc2[nH]c3c(c2c1)CC(N)CC3 (configuration not stated) | 1190 |  | Ki [6]: 342 nM |
| CCCCCCCCC(=O)Oc1ccc2[nH]cc(CCN(C)C)c2c1 |  | 9.3 |  |
| CCc1ccc2[nH]cc(CCN(C)C)c2c1 |  | 15 |  |
| CCCCCCCCCOc1ccc2[nH]cc(CCN(C)C)c2c1 |  | 575 |  |
| NC(=O)c1ccc2[nH]c3c(c2c1)CC(N)CC3 (configuration not stated) |  |  | pKD [7]: 8; Ki [3]: 10 nM |
| CCC(=O)Oc1ccc2[nH]cc(CCN(C)C)c2c1 |  | 405 |  |
| COc1ccc2[nH]cc(CCN)c2c1 [5-METHOXYTRYPTAMINE] |  | 3.2 |  |
